Measured values: patent US8129355B2, “Ketone ligands for modulating the expression of exogenous genes via an ecdysone receptor complex” (priority 2002, dated 2012)

Columns and labels:
[1] = target: T1, GAL4 DBD-CfEcR(DEF)/VP16AD-MmRXRE (Choristoneura fumiferana, UniProt O77240); assay: cell-based
T1 sequence (O77240 1-513): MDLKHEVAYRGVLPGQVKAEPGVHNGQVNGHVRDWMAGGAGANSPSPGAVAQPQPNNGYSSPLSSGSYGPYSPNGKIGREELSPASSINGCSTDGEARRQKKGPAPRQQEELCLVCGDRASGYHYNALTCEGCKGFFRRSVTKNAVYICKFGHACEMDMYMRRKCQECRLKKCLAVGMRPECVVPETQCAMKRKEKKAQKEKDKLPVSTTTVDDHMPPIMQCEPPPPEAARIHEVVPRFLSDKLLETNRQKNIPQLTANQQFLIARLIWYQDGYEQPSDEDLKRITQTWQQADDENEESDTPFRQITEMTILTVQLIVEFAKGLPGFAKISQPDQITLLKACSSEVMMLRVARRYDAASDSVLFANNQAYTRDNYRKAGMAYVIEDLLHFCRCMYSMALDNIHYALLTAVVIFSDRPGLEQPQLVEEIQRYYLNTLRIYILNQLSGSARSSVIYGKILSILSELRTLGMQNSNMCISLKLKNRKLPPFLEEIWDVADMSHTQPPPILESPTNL
In short: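 Stable CHO clone 13B3 expressing GAL4 DBD-CfEcR(DEF) and VP16AD-mouse RXR(DE) with GAL4 RE-luciferase reporter. Ligands tested at 8 concentrations, 33–0.01 μM; luciferase read 48 h after treatment. Fold induction versus DMSO; BC50 from three-parameter logistic fit.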

[2] = target: T2, GAL4 DBD (1-147)-CfEcR(DEF)/VP16AD-βRXREF-LmUSPEF (Choristoneura fumiferana, UniProt O77240); assay: 27-63 assay: luciferase reporter gene expression in stable CHO cell clone 27-63; settings: for 27-63 Rel Max FI: maximum fold induction at any concentration relative to that of GS-E ligand; for CC50: read-out: 27-63 LC50, average, dose response, three-parameter logistic model; for Fold Induction Average, 27-63 Assay (33 μM): single dose 33 μM, RLU ligand treated / RLU DMSO treated cells
T2 sequence (O77240 191-513): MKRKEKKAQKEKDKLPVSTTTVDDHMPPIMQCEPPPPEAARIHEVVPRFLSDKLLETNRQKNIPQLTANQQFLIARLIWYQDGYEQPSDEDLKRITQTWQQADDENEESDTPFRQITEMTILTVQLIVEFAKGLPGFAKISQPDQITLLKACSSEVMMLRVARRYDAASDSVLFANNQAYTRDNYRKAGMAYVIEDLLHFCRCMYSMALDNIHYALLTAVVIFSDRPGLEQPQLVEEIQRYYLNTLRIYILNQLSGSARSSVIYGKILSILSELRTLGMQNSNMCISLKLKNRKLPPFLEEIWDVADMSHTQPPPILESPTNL
T2 sequence (P28702 296-455 partner limits assumed): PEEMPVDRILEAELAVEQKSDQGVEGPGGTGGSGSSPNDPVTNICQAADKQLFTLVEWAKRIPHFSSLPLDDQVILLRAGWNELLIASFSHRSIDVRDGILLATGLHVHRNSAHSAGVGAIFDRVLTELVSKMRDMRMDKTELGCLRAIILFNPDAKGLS
Text: GAL4 DBD (1-147)-CfEcR(DEF)/VP16AD-βRXREF-LmUSPEF: The wild-type D, E, and F domains from spruce budworm Choristoneura fumiferana EcR (“CfEcR-DEF”; SEQ ID NO: 1) were fused to a GAL4 DNA binding domain (“Gal4 DBD1-147”; nucleotides 31 to 471 of SEQ ID NO: 2) and placed under the control of a phosphoglycerate kinase promoter (“PGK”; SEQ ID NO: 3). Helices 1 through 8 of the EF domains from Homo sapiens RXRβ and helices 9 through 12 of the EF domains of Locusta migratoria Ultraspiracle Protein (“HsRXRβ-EF-LmUSP-EF”; SEQ ID NO: 4) were fused to the transactivation domain from VP16 (“VP16AD”; SEQ ID NO: 5) and placed under the control of an elongation factor-1α promoter (“EF-1α”; SEQ ID NO: 6). Five consensus GAL4 response element binding sites (“5XGAL4RE”; comprising 5 copies of a GAL4RE comprising SEQ ID NO: 7) were fused to a synthetic TATA minimal promoter (SEQ ID NO: 8) and placed upstream of the luciferase reporter gene (SEQ ID NO: 9).
CHO cells were transiently transfected with transcription cassettes for GAL4 DBD (1-147) CfEcR(DEF) and for VP16AD βRXREF-LmUSPEF controlled by ubiquitously active cellular promoters (PGK and EF-1α, respectively) on a single plasmid. Stably transfected cells were selected by Zeocin resistance. Individually isolated CHO cell clones were transiently transfected with a GAL4 RE-luciferase reporter (pFR Luc). 27-63 clone was selected using Hygromycin.
Cells were trypsinized and diluted to a concentration of 2.5×10^4 cells mL. 100 μL of cell suspension was placed in each well of a 96 well plate and incubated at 37° C. under 5% CO2 for 24 h. Ligand stock solutions were prepared in DMSO and diluted 300 fold for all treatments. Dose response testing consisted of 8 concentrations ranging from 33 μM to 0.01 μM.
Luciferase reporter gene expression was measured 48 h after cell treatment using Bright-Glo™ Luciferase Assay System from Promega (E2650). Luminescence was detected at room temperature using a Dynex MLX microtiter plate luminometer.
Fold inductions were calculated from single dose testing by dividing relative light units (RLU) in ligand treated cells by RLU in DMSO treated cells. BC50s were calculated from dose response data using a three-parameter logistic model.

[3] = target: T3, Bombyx mori EcR (VP16 fusion, switch construct CVBE) with 6XEcRE LacZ reporter (Bombyx mori, UniProt P49881); assay: Z3 assay: β-galactosidase (LacZ) reporter gene fold induction in stably transformed human 293 kidney cells (clone Z3); format: cell-based; settings: single dose 33 μM; ligand treated / DMSO treated cells
T3 construct: expressed in transfected cells; host or cells: Human 293 kidney (HEK-293) cells, retrovirally infected, clone Z3
T3 sequence (P49881 86-606 limits assumed): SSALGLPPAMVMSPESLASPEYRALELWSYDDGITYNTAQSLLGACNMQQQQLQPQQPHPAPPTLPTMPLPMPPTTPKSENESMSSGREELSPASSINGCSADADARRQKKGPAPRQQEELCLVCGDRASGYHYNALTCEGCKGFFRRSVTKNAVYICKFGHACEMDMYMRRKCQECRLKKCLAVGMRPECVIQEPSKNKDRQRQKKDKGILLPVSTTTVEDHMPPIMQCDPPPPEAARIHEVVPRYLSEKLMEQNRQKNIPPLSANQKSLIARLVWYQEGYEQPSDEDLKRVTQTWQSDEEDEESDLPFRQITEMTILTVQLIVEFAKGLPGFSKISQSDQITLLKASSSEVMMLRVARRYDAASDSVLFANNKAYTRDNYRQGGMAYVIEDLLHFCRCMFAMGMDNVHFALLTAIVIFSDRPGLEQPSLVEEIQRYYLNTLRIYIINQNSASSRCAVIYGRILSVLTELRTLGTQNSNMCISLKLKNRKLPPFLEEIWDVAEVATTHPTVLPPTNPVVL
T3 sequence (P19793 1-462 partner): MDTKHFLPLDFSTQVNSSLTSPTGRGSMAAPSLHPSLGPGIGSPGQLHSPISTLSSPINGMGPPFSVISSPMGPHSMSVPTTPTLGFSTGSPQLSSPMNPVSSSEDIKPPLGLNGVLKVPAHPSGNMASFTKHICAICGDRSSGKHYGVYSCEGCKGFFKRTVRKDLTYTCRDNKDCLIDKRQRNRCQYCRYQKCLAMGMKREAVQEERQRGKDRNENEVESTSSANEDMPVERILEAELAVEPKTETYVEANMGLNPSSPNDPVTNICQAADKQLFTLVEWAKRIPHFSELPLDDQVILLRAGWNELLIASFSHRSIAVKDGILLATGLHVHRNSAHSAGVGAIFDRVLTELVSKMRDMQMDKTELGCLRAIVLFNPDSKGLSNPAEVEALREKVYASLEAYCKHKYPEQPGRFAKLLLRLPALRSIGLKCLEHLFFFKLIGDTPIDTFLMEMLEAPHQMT
In short: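 β-Galactosidase read 48 h after dosing by bioluminescent assay; ligand added at 33 μM with DMSO held at 0.03%. The cells are stable 293 clone Z3, expressing a CMV-driven VP16 fusion of Bombyx mori EcR residues 26-546 plus six EcRE copies upstream of lacZ.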

[4] = target: T4, Gal4 DBD/AaEcR (DEF) with VP16-βRXR-E (Aedes aegypti, UniProt P49880); assay: cell-based; format: cell-based; settings: for Fold Induction Average, AA_3T3 Assay (33 μM): single dose 33 μM, RLU ligand treated / RLU DMSO treated cells; for LC50 (half-maximal ligand concentration for reporter induction): average, dose response 33 μM to 0.01 μM, three-parameter logistic model, read-out: AA_3T3 LC50; for AA_3T3 Rel Max FI: maximum fold induction at any concentration relative to that of GS-E ligand
T4 construct: The wildtype D, E, and F domains from mosquito Aedes aegypti EcR (“AaEcR-DEF”); expressed in transfected cells; host or cells: 3T3 cells, transient transfection (Superfect)
Procedure: 3T3 cells were trypsinized and plated at 2.5×10^3 cells/well on a 96-well plate. After incubation for 24 h at 37° C. under 5% CO2, cells were transfected with the Gal4 DBD/AaEcR (DEF) gene expression cassette and the reporter plasmid, pFRLuc, containing a 5XGAL4 response element and the firefly luciferase gene in serum free media using Superfect (Qiagen). After transfection for 4 h at 37° C., the cells were treated with ligand in serum media. […] Single dose testing was performed at 33 μM.

T4 sequence (P28704 286-520 A311G/G315S/G445S/I449V): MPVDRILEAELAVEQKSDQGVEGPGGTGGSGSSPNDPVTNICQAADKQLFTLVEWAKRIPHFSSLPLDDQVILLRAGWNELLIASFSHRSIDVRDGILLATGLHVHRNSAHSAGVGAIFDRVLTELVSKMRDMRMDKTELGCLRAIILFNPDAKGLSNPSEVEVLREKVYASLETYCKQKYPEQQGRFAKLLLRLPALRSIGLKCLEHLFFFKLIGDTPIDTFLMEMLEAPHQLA
T4 sequence (P49880 405-776): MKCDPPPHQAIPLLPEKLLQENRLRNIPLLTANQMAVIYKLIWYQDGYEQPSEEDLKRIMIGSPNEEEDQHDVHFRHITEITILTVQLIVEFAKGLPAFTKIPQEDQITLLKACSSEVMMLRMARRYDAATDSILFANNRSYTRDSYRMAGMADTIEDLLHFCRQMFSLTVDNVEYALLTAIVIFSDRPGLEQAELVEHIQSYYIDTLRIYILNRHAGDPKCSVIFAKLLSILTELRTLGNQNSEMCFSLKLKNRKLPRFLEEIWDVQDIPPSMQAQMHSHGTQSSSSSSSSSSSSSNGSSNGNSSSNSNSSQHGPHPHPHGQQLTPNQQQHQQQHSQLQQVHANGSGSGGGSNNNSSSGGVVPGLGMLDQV

COc1cccc(C(=O)NC(C)(C(=O)c2ccc(F)c(C)c2)C(C)C)c1C (stereo not shown) [Example 56]
EC50 [1]: > 33 µM | 13B3 Rel Max FI ([1]; maximum fold induction at any concentration relative to that of GS-E ligand): 0.00 | 27-63 Rel Max FI [2]: 0.06 | CC50 [2]: > 33 µM

COc1cccc(C(=O)NC(C)(C(=O)c2cc(C)cc(C)c2)c2ccc(F)cc2)c1C (stereo not shown) [Example 73]
Fold Induction Average, Z3 Assay (33 μM) [3]: 4 | Fold Induction Average, AA_3T3 Assay (33 μM) [4]: 1

Cc1cc(C)cc(C(=O)C2(NC(=O)c3ccccc3C)CCCC2)c1 [Example 89]
27-63 Rel Max FI [2]: 0.07 | CC50 [2]: > 33 µM | LC50 (half-maximal ligand concentration for reporter induction) [4]: > 33 µM | AA_3T3 Rel Max FI [4]: 0.00 | Fold Induction Average, AA_3T3 Assay (33 μM) [4]: 78

CCC(=O)C(C)(C)NC(=O)c1ccccc1C [Example 124]
Fold Induction Average, AA_3T3 Assay (33 μM) [4]: 2

CCC(=O)C(C)(C)NC(=O)c1ccc(CC)cc1 [Example 125]
Fold Induction Average, AA_3T3 Assay (33 μM) [4]: 1

CCC(=O)C1(NC(=O)c2ccccc2C)CCCC1 [Example 132]
Fold Induction Average, AA_3T3 Assay (33 μM) [4]: 1

COc1cccc(C(=O)NC2(C(=O)c3cc(C)cc(C)c3)CCCC2)c1 [Example 137]
27-63 Rel Max FI [2]: 0.21 | CC50 [2]: > 33 µM | LC50 (half-maximal ligand concentration for reporter induction) [4]: > 33 µM | AA_3T3 Rel Max FI [4]: 0.01 | Fold Induction Average, AA_3T3 Assay (33 μM) [4]: 115

CCc1ccc(C(=O)NC2(C(=O)c3cc(C)cc(C)c3)CCCC2)cc1 [Example 138]
27-63 Rel Max FI [2]: 0.75 | CC50 [2]: 3.59 µM | LC50 (half-maximal ligand concentration for reporter induction) [4]: ~4.7 µM | AA_3T3 Rel Max FI [4]: 0.22 | Fold Induction Average, AA_3T3 Assay (33 μM) [4]: 2134

CCOC(=O)C(=O)N1CCC(NC(=O)c2cccc(OC)c2C)(C(=O)c2cc(C)cc(C)c2)CC1 [Example 150]
Fold Induction Average, Z3 Assay (33 μM) [3]: 3 | Fold Induction Average, 27-63 Assay (33 μM) [2]: 1

COc1cccc(C(=O)NC2(C(=O)c3cc(C)cc(C)c3)CCN(S(C)(=O)=O)CC2)c1C [Example 151]
Fold Induction Average, Z3 Assay (33 μM) [3]: 3 | Fold Induction Average, 27-63 Assay (33 μM) [2]: 1

CCOC(=O)CN1CCC(NC(=O)c2cccc(OC)c2C)(C(=O)c2cc(C)cc(C)c2)CC1 [Example 152]
Fold Induction Average, Z3 Assay (33 μM) [3]: 6 | Fold Induction Average, 27-63 Assay (33 μM) [2]: 3

COc1cccc(C(=O)NC2(C(=O)c3cc(C)cc(C)c3)CCN(C(=O)OC(C)C)CC2)c1C [Example 158]
Fold Induction Average, Z3 Assay (33 μM) [3]: 4 | Fold Induction Average, AA_3T3 Assay (33 μM) [4]: 1

COc1cccc(C(=O)NC2(C(=O)c3cc(C)cc(C)c3)CCN(CC#N)CC2)c1C [Example 159]
Fold Induction Average, Z3 Assay (33 μM) [3]: 2 | Fold Induction Average, 27-63 Assay (33 μM) [2]: 1
